Assay results as given in US10723741B1, “DNA polymerase IIIC inhibitors and use thereof” (Acurx Pharmaceuticals, LLC, priority 2018, dated 2020).
Values after ≈ are worked out from the molar mass of the structure shown.

Legend:
Format in all cases: cell-based
[1] = test system: Staphylococcus aureus NRS384 (MRSA); experiment: Broth microdilution MIC, S. aureus NRS384 (MRSA); details: Staphylococcus aureus; broth microdilution, 37° C., 20 hours; read-out: MIC NRS 384 (MRSA)
Method in brief: (§1)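 Two-fold dilutions from 64 to 0.0625 μg/ml final, 1% DMSO, were inoculated at ~5.0×10^5 cfu/ml in the strain's test medium and kept 20 h at 37 °C in ambient atmosphere. Colonies were grown on MHA, with S. pneumoniae on blood agar under 5% CO2.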

[2] = test system: Staphylococcus aureus ATCC 29213 (MSSA); experiment: Broth microdilution MIC, S. aureus ATCC 29213 (MSSA); details: broth microdilution, 37° C., 20 hours, read-out: MIC S. aureus ATCC 29213 (MSSA)
Method in brief: as §1

[3] = test system: Enterococcus faecalis ATCC 29212; experiment: Broth microdilution MIC, E. faecalis ATCC 29212; details: ATCC29212, broth microdilution, 37° C., 20 hours, read-out: MIC E. faecalis ATCC 29212
Method in brief: as §1

[4] = test system: Enterococcus faecium ATCC 700221 (VRE); experiment: Broth microdilution MIC, E. faecium ATCC 700221 (VRE); details: Enterococcus faecium; broth microdilution, 37° C., 20 hours; read-out: MIC E. faecium ATCC 700221 (VRE)
Method in brief: as §1

[5] = test system: Streptococcus pneumoniae ATCC 49619; experiment: Broth microdilution MIC, S. pneumoniae ATCC 49619; details: ATCC49619, broth microdilution, 37° C., 20 hours, read-out: MIC S. pneumoniae ATCC 49619
Method in brief: as §1

[6] = test system: Bacillus subtilis ATCC 6633; experiment: Broth microdilution MIC, B. subtilis ATCC 6633; details: ATCC6633, broth microdilution, 37° C., 20 hours, read-out: MIC B. subtilis ATCC 6633
Method in brief: as §1

[7] = test system: Escherichia coli ATCC 25922; experiment: Broth microdilution MIC, E. coli ATCC 25922 (MHIIB w & w/o 4 mM EDTA); details: broth microdilution, 37° C., 20 hours; for MIC: Escherichia coli, ATCC25922, without EDTA, read-out: MIC E. coli ATCC 25922; for MIC E. coli ATCC 25922 + 4 mM EDTA: with 4 mM EDTA
Method in brief: as §1

MIC [1] | MIC [2] | MIC [3] | MIC [4] | MIC [5] | MIC [6] | MIC [7] | MIC E. coli ATCC 25922 + 4 mM EDTA [7] | Compound
4 µg/mL (≈ 9.13 µM) | 4 µg/mL (≈ 9.13 µM) | 8 µg/mL (≈ 18.3 µM) | 4 µg/mL (≈ 9.13 µM) | 4 µg/mL (≈ 9.13 µM) | 1 µg/mL (≈ 2.28 µM) | > 64 µg/mL | >64 µg/mL | COCCOC/C=C/Cn1ncc2nc(NCc3ccc(Cl)c(Cl)c3)[nH]c(=O)c21 [Compound 193, (E)-5-((3,4-dichlorobenzyl)amino)-1-(4-(2-methoxyethoxy)but-2-en-1-yl)-1H-pyrazolo[4,3-d]pyrimidin-7(6H)-one]
> 64 µg/mL | 64 µg/mL | 32 µg/mL | 32 µg/mL | 16 µg/mL | 8 µg/mL | > 64 µg/mL | 64 µg/mL | CCOC(=O)C1(Cn2ncc3nc(NCc4ccc(Cl)c(Cl)c4)[nH]c(=O)c32)CCNCC1.Cl [Compound 194, ethyl 4-((5-((3,4-dichlorobenzyl)amino)-7-oxo-6,7-dihydro-1H-pyrazolo[4,3-d]pyrimidin-1-yl)methyl)piperidine-4-carboxylate hydrochloride]
> 64 µg/mL | > 64 µg/mL | 64 µg/mL | 64 µg/mL | 16 µg/mL | 8 µg/mL | > 64 µg/mL | >64 µg/mL | Cl.O=c1[nH]c(NCc2ccc(Cl)c(Cl)c2)nc2cnn(CC3(CO)CCNCC3)c12 [Compound 195, 5-((3,4-dichlorobenzyl)amino)-1-((4-(hydroxymethyl)piperidin-4-yl)methyl)-1H-pyrazolo[4,3-d]pyrimidin-7(6H)-one hydrochloride]
> 64 µg/mL | > 64 µg/mL | > 64 µg/mL | > 64 µg/mL | > 64 µg/mL | > 64 µg/mL | > 64 µg/mL | >64 µg/mL | Cl.O=C(O)C1(Cn2ncc3nc(NCc4ccc(Cl)c(Cl)c4)[nH]c(=O)c32)CCNCC1 [Compound 196, 4-((5-((3,4-dichlorobenzyl)amino)-7-oxo-6,7-dihydro-1H-pyrazolo[4,3-d]pyrimidin-1-yl)methyl)piperidine-4-carboxylic acid hydrochloride]
16 µg/mL (≈ 35.4 µM) | 16 µg/mL (≈ 35.4 µM) | 16 µg/mL (≈ 35.4 µM) | 16 µg/mL (≈ 35.4 µM) | 16 µg/mL (≈ 35.4 µM) | 4 µg/mL (≈ 8.86 µM) | > 64 µg/mL | >64 µg/mL | CNC(=O)C(C)(C)CCCn1ncc2nc(NCc3ccc(Cl)c(Cl)c3)[nH]c(=O)c21 [Compound 198, 5-(5-((3,4-dichlorobenzyl)amino)-7-oxo-6,7-dihydro-1H-pyrazolo[4,3-d]pyrimidin-1-yl)-N,2,2-trimethylpentanamide]
16 µg/mL (≈ 36.5 µM) | 16 µg/mL (≈ 36.5 µM) | 16 µg/mL (≈ 36.5 µM) | 8 µg/mL (≈ 18.3 µM) | 8 µg/mL (≈ 18.3 µM) | 32 µg/mL (≈ 73 µM) | > 64 µg/mL | >64. ug/ml | CC(C)(CCCn1ncc2nc(NCc3ccc(Cl)c(Cl)c3)[nH]c(=O)c21)C(=O)O [Compound 199, 5-(5-((3,4-Dichlorobenzyl)amino)-7-oxo-6,7-dihydro-1H-pyrazolo[4,3-d]pyrimidin-1-yl)-2,2-dimethylpentanoic acid]
8 µg/mL (≈ 16 µM) | 8 µg/mL (≈ 16 µM) | 16 µg/mL (≈ 32 µM) | 8 µg/mL (≈ 16 µM) | 16 µg/mL (≈ 32 µM) | 2 µg/mL (≈ 4 µM) | > 64 µg/mL | >64 µg/mL | CNC(=O)C(CCCn1ncc2nc(NCc3ccc(Cl)c(Cl)c3)[nH]c(=O)c21)c1ccccc1 (stereo not shown) [Compound 200, 5-(5-((3,4-dichlorobenzyl)amino)-7-oxo-6,7-dihydro-1H-pyrazolo[4,3-d]pyrimidin-1-yl)-N-methyl-2-phenylpentanamide]
32 µg/mL (≈ 65.8 µM) | 32 µg/mL (≈ 65.8 µM) | 32 µg/mL (≈ 65.8 µM) | 16 µg/mL (≈ 32.9 µM) | 16 µg/mL (≈ 32.9 µM) | 64 µg/mL (≈ 132 µM) | > 64 µg/mL | >64. ug/ml | O=C(O)C(CCCn1ncc2nc(NCc3ccc(Cl)c(Cl)c3)[nH]c(=O)c21)c1ccccc1 (stereo not shown) [Compound 201, 5-(5-((3,4-dichlorobenzyl)amino)-7-oxo-6,7-dihydro-1H-pyrazolo[4,3-d]pyrimidin-1-yl)-2-phenylpentanoic acid]
32 µg/mL (≈ 75.4 µM) | 32 µg/mL (≈ 75.4 µM) | 32 µg/mL (≈ 75.4 µM) | 16 µg/mL (≈ 37.7 µM) | 8 µg/mL (≈ 18.9 µM) | 32 µg/mL (≈ 75.4 µM) | > 64 µg/mL | >64 µg/mL | CC(CCCn1ncc2nc(NCc3ccc(Cl)c(Cl)c3)[nH]c(=O)c21)C(=O)O (stereo not shown) [Compound 202, 5-(5-((3,4-dichlorobenzyl)amino)-7-oxo-6,7-dihydro-1H-pyrazolo[4,3-d]pyrimidin-1-yl)-2-methylpentanoic acid]
2 µg/mL (≈ 4.56 µM) | 2 µg/mL (≈ 4.56 µM) | > 64 µg/mL | 2 µg/mL (≈ 4.56 µM) | 8 µg/mL (≈ 18.3 µM) | 0.5 µg/mL (≈ 1.14 µM) | > 64 µg/mL | >64 µg/mL | CCOC(=O)CCCCn1ncc2nc(NCc3ccc(Cl)c(Cl)c3)[nH]c(=O)c21 [Compound 203, ethyl 5-(5-((3,4-dichlorobenzyl)amino)-7-oxo-6,7-dihydro-1H-pyrazolo[4,3-d]pyrimidin-1-yl)pentanoate]
2 µg/mL (≈ 4.42 µM) | 4 µg/mL (≈ 8.84 µM) | > 64 µg/mL | 2 µg/mL (≈ 4.42 µM) | 16 µg/mL (≈ 35.4 µM) | 1 µg/mL (≈ 2.21 µM) | > 64 µg/mL | >64 µg/mL | CC(C)OC(=O)CCCCn1ncc2nc(NCc3ccc(Cl)c(Cl)c3)[nH]c(=O)c21 [Compound 204, isopropyl 5-(5-((3,4-dichlorobenzyl)amino)-7-oxo-6,7-dihydro-1H-pyrazolo[4,3-d]pyrimidin-1-yl)pentanoate]
2 µg/mL (≈ 4.71 µM) | 4 µg/mL (≈ 9.43 µM) | 4 µg/mL (≈ 9.43 µM) | 2 µg/mL (≈ 4.71 µM) | 8 µg/mL (≈ 18.9 µM) | 1 µg/mL (≈ 2.36 µM) | > 64 µg/mL | >64 µg/mL | CCOC(=O)CCCn1ncc2nc(NCc3ccc(Cl)c(Cl)c3)[nH]c(=O)c21 [Compound 205, ethyl 4-(5-((3,4-dichlorobenzyl)amino)-7-oxo-6,7-dihydro-1H-pyrazolo[4,3-d]pyrimidin-1-yl)butanoate]
> 64 µg/mL | > 64 µg/mL | > 64 µg/mL | 4 µg/mL (≈ 9.13 µM) | 16 µg/mL (≈ 36.5 µM) | 1 µg/mL (≈ 2.28 µM) | > 64 µg/mL | >64 µg/mL | CC(C)OC(=O)CCCn1ncc2nc(NCc3ccc(Cl)c(Cl)c3)[nH]c(=O)c21 [Compound 206, isopropyl 4-(5-((3,4-dichlorobenzyl)amino)-7-oxo-6,7-dihydro-1H-pyrazolo[4,3-d]pyrimidin-1-yl)butanoate]
16 µg/mL (≈ 36.3 µM) | 16 µg/mL (≈ 36.3 µM) | 8 µg/mL (≈ 18.2 µM) | 4 µg/mL (≈ 9.08 µM) | 8 µg/mL (≈ 18.2 µM) | 2 µg/mL (≈ 4.54 µM) | > 64 µg/mL | >64 µg/mL | O=c1[nH]c(NCc2ccc(Cl)c(Cl)c2)nc2cnn(C[C@@H]3CO[C@@H](CO)CO3)c12 [Compound 207, 5-((3,4-dichlorobenzyl)amino)-1-(((2R,5S)-5-(hydroxymethyl)-1,4-dioxan-2-yl)methyl)-1H-pyrazolo[4,3-d]pyrimidin-7(6H)-one]
16 µg/mL (≈ 36.3 µM) | 16 µg/mL (≈ 36.3 µM) | 8 µg/mL (≈ 18.2 µM) | 4 µg/mL (≈ 9.08 µM) | 8 µg/mL (≈ 18.2 µM) | 2 µg/mL (≈ 4.54 µM) | > 64 µg/mL | >64 µg/mL | O=c1[nH]c(NCc2ccc(Cl)c(Cl)c2)nc2cnn(C[C@@H]3CO[C@H](CO)CO3)c12 [Compound 208, 5-((3,4-dichlorobenzyl)amino)-1-(((2R,5R)-5-(hydroxymethyl)-1,4-dioxan-2-yl)methyl)-1H-pyrazolo[4,3-d]pyrimidin-7(6H)-one]
16 µg/mL (≈ 37.4 µM) | 8 µg/mL (≈ 18.7 µM) | 4 µg/mL (≈ 9.34 µM) | 1 µg/mL (≈ 2.34 µM) | 4 µg/mL (≈ 9.34 µM) | 4 µg/mL (≈ 9.34 µM) | > 64 µg/mL | >64 µg/mL | O=C(O)CCCCn1nc(F)c2nc(NCc3ccc(Cl)c(Cl)c3)[nH]c(=O)c21 [Compound 209, 5-(5-((3,4-dichlorobenzyl)amino)-3-fluoro-7-oxo-6,7-dihydro-1H-pyrazolo[4,3-d]pyrimidin-1-yl)pentanoic acid]

Compound | MIC [1] | MIC [2] | MIC [3] | MIC [4] | MIC [5] | MIC [6] | MIC [7] | MIC E. coli ATCC 25922 + 4 mM EDTA [7]
C[Si](C)(C)CCOCNC(=O)Cn1ncc2nc(NCc3ccc(Cl)c(Cl)c3)[nH]c(=O)c21 [Compound 197, 2-(5-((3,4-dichlorobenzyl)amino)-7-oxo-6,7-dihydro-1H-pyrazolo[4,3-d]pyrimidin-1-yl)-N-((2-(trimethylsilyl)ethoxy)methyl)acetamide] | > 64 µg/mL | > 64 µg/mL | > 64 µg/mL | > 64 µg/mL | > 64 µg/mL | > 64 µg/mL | > 64 µg/mL | >64 µg/mL
